In data set [1] the target is T1, Indoleamine 2,3-dioxygenase 1 (Homo sapiens, UniProt P14902). Nature of the data set: Inhibition of recombinant human GST-tagged IDO1 (1 to 404 residues) at 1 uM using D-Tryptophan as substrate relative to control.
Target sequence in this assay (P14902 whole entry, looked up, the tested form may be a part): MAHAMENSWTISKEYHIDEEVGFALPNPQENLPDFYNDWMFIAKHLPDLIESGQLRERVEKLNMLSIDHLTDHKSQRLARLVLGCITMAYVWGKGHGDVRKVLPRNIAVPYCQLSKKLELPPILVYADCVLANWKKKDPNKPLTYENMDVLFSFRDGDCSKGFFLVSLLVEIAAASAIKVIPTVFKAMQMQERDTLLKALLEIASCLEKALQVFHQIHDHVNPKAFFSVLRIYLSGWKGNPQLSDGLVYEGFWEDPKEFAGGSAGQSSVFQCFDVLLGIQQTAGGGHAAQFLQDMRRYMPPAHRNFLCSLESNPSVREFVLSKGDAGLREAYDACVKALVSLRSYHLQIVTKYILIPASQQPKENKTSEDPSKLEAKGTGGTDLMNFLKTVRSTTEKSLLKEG
The next data set relates to A549. Description: Antiproliferative activity against human A549 cells after 48 hrs by CCK-8 assay. Type of data set: functional, cell-based. Conditions: A549, 48 h. For orientation: Formazan colour is commonly taken as a measure of viable cells.
The test system of the next data set is HT-29. Nature of the data set: Antiproliferative activity against human HT-29 cells after 48 hrs by CCK-8 assay. The format is functional, cell-based. Conditions: HT-29, 48 h.
In data set [2] the test system is Lewis lung carcinoma cell line. Description: Antiproliferative activity against mouse LLC cells after 48 hrs by CCK-8 assay. The format is functional, cell-based.
Another data set relates to CT26. Nature of the data set: Antiproliferative activity against mouse CT26 cells after 48 hrs by CCK-8 assay. Conditions: CT26, 48 h. Type of data set: functional, cell-based.
Data set [3] has as its system HCT-116. Description: Antiproliferative activity against human HCT116 cells after 48 hrs by CCK-8 assay. The conditions noted are these: HCT-116, 48 h. Type of data set: functional, cell-based.
The next data set addresses Histone deacetylase 1 (Homo sapiens, UniProt Q13547). Description: Inhibition of recombinant human full length HDAC1 using fluorogenic substrate 3 after 30 mins by fluorescence assay.
The nature of data set [4]: Half life in Sprague-Dawley rat at 100 mg/kg, po administered as single dose via gavage by LC-MS/MS analysis. Conditions: in vivo. Type of data set: ADME, organism-based.
The nature of data set [5]: Tmax in Sprague-Dawley rat at 100 mg/kg, po administered as single dose via gavage by LC-MS/MS analysis. The format is ADME, organism-based. The conditions noted are these: in vivo.
A short description of data set [6]: Cmax in Sprague-Dawley rat at 100 mg/kg, po administered as single dose via gavage by LC-MS/MS analysis. Type of data set: ADME, organism-based. The arrangement: dose 100 mg/kg, route oral. The conditions noted are these: in vivo.
Data set [7] in a line: Half life in immunocompetent C57BL/6 mouse implanted with mouse LLC cells at 100 mg/kg, po bid administered via gavage. The conditions noted are these: in vivo. The format is ADME, organism-based.
A short description of data set [8]: AUC (0 to infinity) in Sprague-Dawley rat at 100 mg/kg, po administered as single dose via gavage by LC-MS/MS analysis. The format is ADME, organism-based. The arrangement: dose 100 mg/kg, time infinity, route oral. Conditions: in vivo.
The nature of data set [9]: AUC in immunocompetent C57BL/6 mouse implanted with mouse LLC cells at 100 mg/kg, po bid administered via gavage. Conditions: in vivo. The format is ADME, organism-based.
The target of data set [10] is T1, Indoleamine 2,3-dioxygenase 1. Nature of the data set: Inhibition of recombinant human GST-tagged IDO1 (1 to 404 residues) using D-Tryptophan as substrate.
Target sequence in this assay (P14902 whole entry, the tested form may be a part): as the sequence (P14902 whole entry, looked up, the tested form may be a part) above
In data set [11] the test system is HCT-116. Nature of the data set: Induction of apoptosis in human HCT116 cells at 20 uM after 48 hrs by Annexin V-FITC/propidium iodide staining based flow cytometry relative to control. The format is functional. In general terms: A flow cytometer gives signals particle by particle.
The test system of data set [12] is HCT-116. Description: Cell cycle arrest in human HCT116 cells assessed as accumulation at G2/M phase up to 48 hrs by propidium iodide staining based flow cytometry. The format is functional.
Data set [13] deals with HCT-116. Description: Induction of apoptosis in human HCT116 cells at 5 uM after 48 hrs by Annexin V-FITC/propidium iodide staining based flow cytometry relative to control. Type of data set: functional.
Data set [14] relates to HCT-116. Nature of the data set: Induction of apoptosis in human HCT116 cells after 48 hrs by Annexin V-FITC/propidium iodide staining based flow cytometry. The format is functional, cell-based.
For data set [15], the system named is HCT-116. Nature of the data set: Induction of apoptosis in human HCT116 cells at 10 uM after 48 hrs by Annexin V-FITC/propidium iodide staining based flow cytometry relative to control. The format is functional.
Data set [16] relates to Mus musculus. Nature of the data set: In vivo inhibition of IDO1 in wild type C57BL/6 mouse assessed as reduction in kynurenine levels in plasma at 100 mg/kg, po administered via gavage after 8 hrs by LC-MS/MS analysis. The format is functional. The conditions noted are these: C57BL/6, po.
Data set [17] concerns Lewis lung carcinoma cell line. Description: Antitumor activity against mouse LLC cells implanted in immunocompetent C57BL/6 mouse assessed as tumor growth inhibition at 100 mg/kg, po bid administered via gavage for 14 consecutive days measured every 4 days relative to control. Conditions: 96 h, read-out: TGI. The format is functional.
Data set [18] deals with Mus musculus. Nature of the data set: In vivo inhibition of IDO1 in wild type C57BL/6 mouse assessed as reduction in kynurenine levels in plasma at 100 mg/kg, po administered via gavage measured up to 1 hr by LC-MS/MS analysis. Type of data set: functional, organism-based.

Consider 15 compounds from ChEMBL document CHEMBL4251732, “Discovery of Novel Indoleamine 2,3-Dioxygenase 1 (IDO1) and Histone Deacetylase (HDAC) Dual Inhibitors” (ACS Med Chem Lett, 2018).

The source made the active and inactive calls. The calls are words filed in the database; no cut-off is given here.

Chain of Histone deacetylase 1 (Q13547 whole entry): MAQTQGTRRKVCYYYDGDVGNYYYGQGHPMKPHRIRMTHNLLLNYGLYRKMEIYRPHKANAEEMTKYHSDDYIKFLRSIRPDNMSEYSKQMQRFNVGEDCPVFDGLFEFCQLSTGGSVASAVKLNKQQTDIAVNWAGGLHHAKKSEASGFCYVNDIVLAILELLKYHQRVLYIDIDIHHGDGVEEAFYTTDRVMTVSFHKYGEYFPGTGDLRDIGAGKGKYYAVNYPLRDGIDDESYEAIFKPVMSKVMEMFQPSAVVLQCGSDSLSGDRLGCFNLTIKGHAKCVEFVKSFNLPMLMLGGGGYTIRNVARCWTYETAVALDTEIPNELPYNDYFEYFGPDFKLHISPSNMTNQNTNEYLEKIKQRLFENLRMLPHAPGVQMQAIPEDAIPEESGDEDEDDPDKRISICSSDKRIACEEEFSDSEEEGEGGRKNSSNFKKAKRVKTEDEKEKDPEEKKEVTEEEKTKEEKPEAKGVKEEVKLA

For `O=C(CCCCCn1cc(-c2ccc(C(=O)NCCNc3nonc3/C(=N/O)Nc3ccc(F)c(Br)c3)cc2)nn1)NO`, the inhibition in [1] amounted to 87%. The IC50 was above 100 µM in the data set with A549; above 100 µM with HT-29; above 100 µM in data set [2]; above 100 µM in the data set with CT26; above 100 µM in the data set on HCT-116 [3]; 66.5 nM at Histone deacetylase 1.
Consider `NS(=O)(=O)NCCNc1nonc1C(=NO)Nc1ccc(F)c(Br)c1` [EPACADOSTAT], for which the half-life in data set [4] and in [7] was 270 min in each case. Also, in data set [5], the Tmax stood at 48 min. Also, the concentration in [6] peaked (Cmax) at 5560 ng/mL. Besides, the area under the curve AUC(0-inf) in [8] amounted to 30700 ng·h/mL. This compound registered an exposure (AUC) in [9] of 70.2 µM·h.
`O=C(CCCCn1cc(-c2ccc(C(=O)NCCNc3nonc3/C(=N/O)Nc3ccc(F)c(Br)c3)cc2)nn1)NO`: the inhibition in data set [1] amounted to 88%. In addition, the concentration for half-maximal inhibition (IC50) was above 100 µM with A549; above 100 µM in the data set on HT-29; above 100 µM in data set [2]; above 100 µM with CT26; 37.5 µM with HCT-116 [3]; 895 nM at Histone deacetylase 1.
On to `Nc1ccccc1NC(=O)c1cccc(C(=O)NCCNc2nonc2/C(=N/O)Nc2ccc(F)c(Br)c2)c1`, for which the inhibition in data set [1] is 79%. The IC50 in the data set with A549 was 27.8 µM; in the data set with HT-29, 46.4 µM; in data set [2], 31.4 µM; with CT26 it was 25.5 µM; with HCT-116 [3] it was 16.2 µM; at Histone deacetylase 1, 633 nM.
Consider `Nc1ccccc1NC(=O)c1ccc(C(=O)NCCNc2nonc2/C(=N/O)Nc2ccc(F)c(Br)c2)s1`, for which the inhibition in data set [1] stood at 76%. The half-maximal inhibitory concentration (IC50) in the data set with A549 came to 14.5 µM; in the data set with HT-29, 20.3 µM; in data set [2], 18.3 µM; in the data set on CT26, 38.8 µM; with HCT-116 [3] it was 7.12 µM; at Histone deacetylase 1 it was 1430 nM.
Take `O=C(NO)c1ccc(C(=O)NCCNc2nonc2/C(=N/O)Nc2ccc(F)c(Br)c2)cc1`: the inhibition in data set [1] was determined as 95%. Further, the IC50 is 89.8 µM in the data set with A549; 68 µM with HT-29; above 100 µM in [2]; above 100 µM in the data set on CT26; 28.1 µM with HCT-116 [3]; 262 nM on Histone deacetylase 1.
In the case of `O=C(CCCC(=O)NCCNc1nonc1/C(=N/O)Nc1ccc(F)c(Br)c1)NO`, the IC50 in data set [10] was 133 nM; in the data set with A549 it was above 100 µM; with HT-29 it was above 100 µM; in data set [2], above 100 µM; with CT26, above 100 µM; in the data set with HCT-116 [3], 80.2 µM. For the same compound, the IC50 at Histone deacetylase 1 came to 121 nM.
On to `O=C(CCCCCCn1cc(-c2ccc(C(=O)NCCNc3nonc3/C(=N/O)Nc3ccc(F)c(Br)c3)cc2)nn1)NO`, for which the IC50 in data set [10] came out at 210 nM; in the data set on A549 it was 45.5 µM; in the data set on HT-29, 23.9 µM; in data set [2], 36 µM; with CT26 it was 90.2 µM; with HCT-116 [3], 29.4 µM. Moreover, the IC50 at Histone deacetylase 1 amounted to 23.5 nM.
On to `O=C(/C=C/c1ccc(C(=O)NCCNc2nonc2/C(=N/O)Nc2ccc(F)c(Br)c2)cc1)NO`, for which the Activity with HCT-116 [11] was 61.3%; with HCT-116 [13], 26.7%; with HCT-116 [14], “Dose-dependent effect”; in the data set on HCT-116 [15], 45.4%. For the same compound, the result in the data set with HCT-116 [12] was Active. Moreover, the IC50 turned out to be 168 nM in data set [10]; 25.6 µM in the data set with A549; 14.2 µM with HT-29; 21.6 µM in data set [2]; 12.8 µM with CT26; 5.89 µM in the data set with HCT-116 [3]. The concentration for half-maximal inhibition (IC50) at Histone deacetylase 1 was found to be 46.2 nM.
In the case of `Nc1ccccc1NC(=O)c1ccc(C(=O)NCCNc2nonc2/C(=N/O)Nc2ccc(F)c(Br)c2)cn1`, the IC50 in data set [10] is 260 nM; in the data set with A549 it was 20.7 µM; in the data set with HT-29, 12.2 µM; in data set [2], 15.1 µM; with CT26, 23.3 µM; in the data set on HCT-116 [3], 6.36 µM. For the same compound, at Histone deacetylase 1, the IC50 was 604 nM.
Consider `NS(=O)(=O)NCCNc1nonc1/C(=N/O)Nc1ccc(F)c(Br)c1` [EPACADOSTAT], for which the inhibition in vivo at 100 mg/kg in the data set with Mus musculus [16] is 50%; in data set [17] it was 54.3%. For the same compound, the 50% inhibitory concentration (IC50) (with A549; in the data set with HT-29; in [2]; with CT26; in the data set with HCT-116 [3]) was above 100 µM throughout. Also, in the data set on Mus musculus [18], the inhibition entry was “Active”.
In the case of `O=C(/C=C/c1cccc(C(=O)NCCNc2nonc2/C(=N/O)Nc2ccc(F)c(Br)c2)c1)NO`, the concentration for half-maximal inhibition (IC50) stood at 27 nM in [10]; 41.7 µM in the data set on A549; 23.3 µM with HT-29; 53.3 µM in data set [2]; 38.9 µM in the data set on CT26; 12.4 µM with HCT-116 [3]. For the same compound, the half-inhibitory concentration (IC50) on Histone deacetylase 1 turned out to be 70.5 nM.
With `O=C(CCCCCCC(=O)NCCNc1nonc1/C(=N/O)Nc1ccc(F)c(Br)c1)NO`, the Activity was 44.5% in the data set on HCT-116 [11], 25.5% with HCT-116 [13], “Dose-dependent effect” in the data set with HCT-116 [14] and 31.1% in the data set with HCT-116 [15]. The result with HCT-116 [12] was Active. Also, the IC50 in data set [10] amounted to 140 nM; with A549, 36 µM; with HT-29, 14.9 µM; in data set [2], 56.6 µM; with CT26, 97.5 µM; in the data set with HCT-116 [3], 4.7 µM. Moreover, the IC50 at Histone deacetylase 1 amounted to 47.7 nM.
With `O=C(CCCCC(=O)NCCNc1nonc1/C(=N/O)Nc1ccc(F)c(Br)c1)NO`, the IC50 in data set [10] is 123 nM; in the data set with A549, above 100 µM; with HT-29, above 100 µM; in data set [2], above 100 µM; in the data set with CT26 it was above 100 µM; in the data set on HCT-116 [3] it was 85.4 µM. Besides, the IC50 at Histone deacetylase 1 is 308 nM.
As for `O=C(CCCCCC(=O)NCCNc1nonc1/C(=N/O)Nc1ccc(F)c(Br)c1)NO`, the IC50 in [10] turned out to be 113 nM; in the data set with A549 it was 40.7 µM; in the data set on HT-29 it was 28.7 µM; in data set [2] it was 90.1 µM; in the data set on CT26, 95.5 µM; in the data set with HCT-116 [3], 17.5 µM. Also, on Histone deacetylase 1, the IC50 stood at 9.2 nM.

For orientation: inhibition means the drop in the measured response relative to a control, in per cent. A word on the IC50: it is the concentration needed to halve the response being measured. As usually defined, the half-life is how long it takes for the measured level to halve. Lower therefore signals fast loss. The Tmax is the time at which the peak concentration occurs. By Cmax is commonly meant the maximum level reached in the sampled fluid or tissue. In general, AUC(0-inf) refers to the area under the concentration-time curve extrapolated to infinity. As a reminder, the AUC is the area under the concentration-time curve, a measure of exposure. A higher AUC goes with more exposure.
